Assay [1] deals with human CCR5 stably over-expressing CHO cell (CCR5/CHO cell) (Homo sapiens, UniProt P51681). Put plainly: Inhibition test on the binding of RANTES to CCR5 (RANTES-induced transient increase of Ca ion). The format is cell-based. To be noted: inhibition of Ca2+ transient increase induced by 10 nM recombinant human RANTES in CCR5/CHO cells.
Method: (1) Isolation of Human CCR5 Gene
Human placental cDNA was prepared using Marathon cDNA amplification kit (Clontech). PCR primers hCCR5XbaI-F1: 5′-[sequence]-3′ (SEQ ID NO:1) and hCCR5XbaI-R1: 5′-[sequence]-3′ (SEQ ID NO:2) were designed based on the sequence of GenBank U54994.
Using the human placental cDNA as the template and using Ex Taq (Takara), PCR reaction (2 minutes at 95° C.→(30 seconds at 95° C., 45 seconds at 60° C., 1 minute at 72° C.)×35 times) was carried out. The thus amplified PCR product was subjected to a 1% agarose gel electrophoresis, purified using QIAquick Gel Extraction Kit (QUIAGEN) and then digested with a restriction enzyme XbaI. […] By preparing the resulting plasmid pEF-BOS-bsr/hCCR5, its DNA sequence was verified. […]
The thus established human CCR5 stably over-expressing CHO cell (CCR5/CHO cell) was suspended in Ham's F-12 medium containing FBS (10%) and dispensed in 3.0×10^6 cells/well portions into a 96 well plate. […] Transient increase in the intracellular Ca^2+ concentration induced by the human RANTES was measured using a Ca^2+ detector for 96 well use (Hamamatsu Photonics), and inhibition ratio (%) of the test compound was calculated by the following calculation formula. Inhibition ratio=(Ec−Ea)/Ec×100 • Ec: measured value of Ca^2+ transient increase by RANTES • Ea: measured value of Ca^2+ transient increase by RANTES when a test compound was added
For assay [2], the target named is T1, human CCR2-expressing cell, human monocyte cell strain THP-1 (Homo sapiens, UniProt P41597).
T1 construct: A human CCR2-expressing cell, e.g., a human monocyte cell strain THP-1 (ATCC No. TIB-202); host or cells: THP-1
T1 sequence (P41597 1-360 isoform P41597-2): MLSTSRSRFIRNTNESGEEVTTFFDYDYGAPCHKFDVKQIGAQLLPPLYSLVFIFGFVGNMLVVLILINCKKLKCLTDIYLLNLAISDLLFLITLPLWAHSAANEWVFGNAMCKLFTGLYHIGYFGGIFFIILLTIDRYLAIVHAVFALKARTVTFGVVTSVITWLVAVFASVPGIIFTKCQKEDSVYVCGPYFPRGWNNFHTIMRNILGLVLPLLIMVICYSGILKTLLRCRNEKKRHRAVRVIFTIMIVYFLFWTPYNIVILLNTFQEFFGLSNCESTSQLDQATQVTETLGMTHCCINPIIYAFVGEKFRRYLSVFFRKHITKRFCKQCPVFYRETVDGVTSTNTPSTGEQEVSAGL
Put plainly: Inhibition test on the binding of MCP-1 to CCR2 (MCP-1-induced transient increase of Ca ion). The settings on record: inhibition of Ca2+ transient increase induced by 30 nM recombinant human MCP-1 in THP-1 cells. The format is cell-based. The source says: An assay system for finding a compound having adsorption inhibition effect on CCR5 directional HIV strain was described in the foregoing, and it is possible as a matter of course to find a compound capable of inhibiting the activity of CCR5 or a ligand thereof using this system. In the same manner, it is possible to find a compound capable of inhibiting the activity of other chemokine receptor or a ligand thereof. For example, a system for finding a compound capable of inhibiting the activity of CCR2 or a ligand thereof can be constructed. […]
A human CCR2-expressing cell, e.g., a human monocyte cell strain THP-1 (ATCC No. TIB-202), was suspended in RPMI 1640 medium containing FBS (10%), Fura-2AM (5 μM), Probenecid (2.5 mM) and HEPES (20 mM, pH 7.4) to a density of 5.0×10^6 cells/ml and incubated at 37° C. for 30 minutes under shaded condition. […] Transient increase in the intracellular Ca 2+concentration induced by the human MCP-1 was measured using a Ca^2+ detector for 96 well use (Hamamatsu Photonics), and inhibition ratio (%) of the test compound was calculated by the following calculation formula. Inhibition ratio=(Ec−Ea)/Ec×100 • Ec: measured value of Ca^2+ transient increase by MCP-1 • Ea: measured value of Ca^2+ transient increase by MCP-1 when a test compound was added

Counter-ions that a name gives are not always drawn.

Sequence of human CCR5 stably over-expressing CHO cell (CCR5/CHO cell) (P51681 whole entry): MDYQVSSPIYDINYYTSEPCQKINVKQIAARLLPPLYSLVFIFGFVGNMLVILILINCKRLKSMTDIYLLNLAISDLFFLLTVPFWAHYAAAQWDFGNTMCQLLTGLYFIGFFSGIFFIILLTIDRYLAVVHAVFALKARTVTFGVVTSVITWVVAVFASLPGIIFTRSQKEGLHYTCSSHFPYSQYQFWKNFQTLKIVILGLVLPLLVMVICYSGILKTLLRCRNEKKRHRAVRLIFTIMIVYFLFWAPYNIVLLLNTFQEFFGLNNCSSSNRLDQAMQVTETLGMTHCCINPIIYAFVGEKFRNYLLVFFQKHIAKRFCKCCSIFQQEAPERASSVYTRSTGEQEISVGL

Take `CCCCN1C(=O)C(CC2CCCCC2)NC(=O)C12CCN(Cc1ccc3c(c1)OCCO3)CC2` (stereo not drawn) [Example 2(1), 9-(1,4-benzodioxan-6-ylmethyl)-1-butyl-3-cyclohexylmethyl-2,5-dioxo-1,4,9-triazaspiro[5.5]undecane.hydrochloride]: the half-maximal inhibitory concentration (IC50) in assay [1] is 0.05 µM. As for `CCCCN1C(=O)C(CC2CCCCC2)NC(=O)C12CCN(Cc1c[nH]c(-c3ccccc3)n1)CC2` (stereo not drawn) [Example 2(2), 1-butyl-3-cyclohexylmethyl-2,5-dioxo-9-(2-phenylimidazol-4-ylmethyl)-1,4,9-triazaspiro[5.5]undecane.2 hydrochloride], the IC50 in assay [1] came to 0.05 µM. As for `CCCN1C(=O)[C@H](CCCCNC(=O)OCc2ccccc2)NC(=O)C12CCN(CCc1ccccc1)CC2` [Example 5(2), (3S)-1-propyl-2,5-dioxo-3-(4-(N-benzyloxycarbonyl)aminobutyl)-9-(2-phenylethyl)-1,4,9-triazaspiro[5.5]undecane.hydrochloride], in assay [2], the half-maximal inhibitory concentration (IC50) was 3 µM.

The values above are taken from patent US7119091B2, “Triazaspiro[5.5]undecane derivatives and pharmaceutical compositions comprising thereof, as an active ingredient” (Ono Pharmaceutical Co., Ltd., priority 1999, dated 2006).
